Where two headings read alike, the source gives them in different places.
Experiments:
Assay type in all cases: cell-based
NR1/NR2B = NR1/NR2B (Rattus norvegicus, UniProt P35439+Q00960); assay: Two electrode voltage clamp, Xenopus oocytes expressing recombinant NR1/NR2B
Description: (§1) Quality of synthesized cRNA was assessed by gel electrophoresis, and quantity was estimated by spectroscopy and gel electrophoresis. Stage V and VI oocytes were surgically removed from the ovaries of large, well-fed and healthy Xenopus laevis anesthetized with 3-amino-benzoic acid ethyl ester (3 gm/l) as previously described. Clusters of isolated oocytes were incubated with 292 U/ml Worthington (Freehold, N.J.) type IV collagenase or 1.3 mg/ml collagenase (Life Technologies, Gaithersburg, MD; 17018-029) for 2 hr in Ca^2+-free solution comprised of (in mM) 115 NaCl, 2.5 KCl, and 10 HEPES, pH 7.5, with slow agitation to remove the follicular cell layer. Oocytes were then washed extensively in the same solution supplemented with 1.8 mM CaCl2 and maintained in Barth's solution comprised of (in mM): 88 NaCl, 1 KCl, 2.4 NaHCO3, 10 HEPES, 0.82 MgSO4, 0.33 Ca(NO3)2, and 0.91 CaCl2 and supplemented with 100 μg/m1 gentamycin, 10 μg/ml streptomycin, and 10 μg/ml penicillin. Oocytes were manually defolliculated and injected within 24 hrs of isolation with 3-5 ng of NR1 subunit cRNA and 7-10 ng of NR2 cRNA subunit in a 50 nl volume, or 5-10 ng of AMPA or kainate receptor cRNAs in a 50 nl volume, and incubated in Barth's solution at 18° C. for 1-7 d. Glass injection pipettes had tip sizes ranging from 10-20 microns, and were backfilled with mineral oil.
(§2) Two electrode voltage-clamp recordings were made 2-7 days post-injection as previously described. Oocytes were placed in a dual-track plexi-glass recording chamber with a single perfusion line that splits in a Y-configuration to perfuse two oocytes. Dual recordings were made at room temperature (23° C.) using two Warner OC725B two-electrode voltage clamp amplifiers, arranged as recommended by the manufacturer. Glass microelectrodes (1-10 Megaohms) were filled with 300 mM KCl (voltage electrode) or 3 M KCl (current electrode). The bath clamps communicated across silver chloride wires placed into each side of the recording chamber, both of which were assumed to be at a reference potential of 0 mV. Oocytes were perfused with a solution comprised of (in mM) 90 NaCl, 1 KCl, 10 HEPES, and 0.5 BaCl2; pH was adjusted by addition of 1-3 M NaOH of HC1 to 7.4. Oocytes were recorded under voltage clamp at −40 mV. […] In some experiments, 10 μM EDTA was obtained by adding a 1:1000 dilution of 10 mM EDTA, in order to chelate contaminant divalent ions such as Zn^2+. […] Concentration effect curves consisting of 4 to 8 concentrations were obtained in this manner. The baseline leak current at −40 mV was measured before and after recording, and the full recording linearly corrected for any change in leak current. […] Each experiment consisted of recordings from 3 to 10 oocytes obtained from a single frog. Results from multiple experiments were pooled, and the average percent responses at antagonist concentrations were fitted by the equation,
(§3) Percent Response=(100−minimum)/(1+([conc]/IC50)nH)+minimum

NR1/NR2D = NR1/NR2D (Rattus norvegicus, UniProt P35439+Q62645); assay: Two electrode voltage clamp, Xenopus oocytes expressing recombinant NR1/NR2D; settings: for remaining activity at 100 µM: read-out: 2D percent effect at the maximum tested concentration
Description: as §1, §2, §3

NR1/NR2A = NR1/NR2A (Rattus norvegicus, UniProt P35439+Q00959); assay: Two electrode voltage clamp, Xenopus oocytes expressing recombinant NR1/NR2A; settings: for IC50: logistic fit, minimum forced to 0, read-out: 2A IC50
Description: as §1, §2, §3

NR1/NR2C = NR1/NR2C (Rattus norvegicus, UniProt P35439+Q00961); assay: Two electrode voltage clamp, Xenopus oocytes expressing recombinant NR1/NR2C; settings: for remaining activity at 100 µM: read-out: 2C percent effect at the maximum tested concentration
Description: as §1, §2, §3

[1] = at 100 μM, read-out: 2B percent effect at the maximum tested concentration
[2] = at 100 μM, read-out: 2A percent effect at the maximum tested concentration
[3] = logistic fit, minimum forced to 0, read-out: 2B IC50
[4] = logistic fit, minimum forced to 0, read-out: 2C IC50
[5] = logistic fit, minimum forced to 0, read-out: 2D IC50
[6] = read-out: 2B percent effect at the maximum tested concentration
[7] = read-out: 2A percent effect at the maximum tested concentration

Chain of NR1/NR2B (Q00960 27-1482, other chains not shown): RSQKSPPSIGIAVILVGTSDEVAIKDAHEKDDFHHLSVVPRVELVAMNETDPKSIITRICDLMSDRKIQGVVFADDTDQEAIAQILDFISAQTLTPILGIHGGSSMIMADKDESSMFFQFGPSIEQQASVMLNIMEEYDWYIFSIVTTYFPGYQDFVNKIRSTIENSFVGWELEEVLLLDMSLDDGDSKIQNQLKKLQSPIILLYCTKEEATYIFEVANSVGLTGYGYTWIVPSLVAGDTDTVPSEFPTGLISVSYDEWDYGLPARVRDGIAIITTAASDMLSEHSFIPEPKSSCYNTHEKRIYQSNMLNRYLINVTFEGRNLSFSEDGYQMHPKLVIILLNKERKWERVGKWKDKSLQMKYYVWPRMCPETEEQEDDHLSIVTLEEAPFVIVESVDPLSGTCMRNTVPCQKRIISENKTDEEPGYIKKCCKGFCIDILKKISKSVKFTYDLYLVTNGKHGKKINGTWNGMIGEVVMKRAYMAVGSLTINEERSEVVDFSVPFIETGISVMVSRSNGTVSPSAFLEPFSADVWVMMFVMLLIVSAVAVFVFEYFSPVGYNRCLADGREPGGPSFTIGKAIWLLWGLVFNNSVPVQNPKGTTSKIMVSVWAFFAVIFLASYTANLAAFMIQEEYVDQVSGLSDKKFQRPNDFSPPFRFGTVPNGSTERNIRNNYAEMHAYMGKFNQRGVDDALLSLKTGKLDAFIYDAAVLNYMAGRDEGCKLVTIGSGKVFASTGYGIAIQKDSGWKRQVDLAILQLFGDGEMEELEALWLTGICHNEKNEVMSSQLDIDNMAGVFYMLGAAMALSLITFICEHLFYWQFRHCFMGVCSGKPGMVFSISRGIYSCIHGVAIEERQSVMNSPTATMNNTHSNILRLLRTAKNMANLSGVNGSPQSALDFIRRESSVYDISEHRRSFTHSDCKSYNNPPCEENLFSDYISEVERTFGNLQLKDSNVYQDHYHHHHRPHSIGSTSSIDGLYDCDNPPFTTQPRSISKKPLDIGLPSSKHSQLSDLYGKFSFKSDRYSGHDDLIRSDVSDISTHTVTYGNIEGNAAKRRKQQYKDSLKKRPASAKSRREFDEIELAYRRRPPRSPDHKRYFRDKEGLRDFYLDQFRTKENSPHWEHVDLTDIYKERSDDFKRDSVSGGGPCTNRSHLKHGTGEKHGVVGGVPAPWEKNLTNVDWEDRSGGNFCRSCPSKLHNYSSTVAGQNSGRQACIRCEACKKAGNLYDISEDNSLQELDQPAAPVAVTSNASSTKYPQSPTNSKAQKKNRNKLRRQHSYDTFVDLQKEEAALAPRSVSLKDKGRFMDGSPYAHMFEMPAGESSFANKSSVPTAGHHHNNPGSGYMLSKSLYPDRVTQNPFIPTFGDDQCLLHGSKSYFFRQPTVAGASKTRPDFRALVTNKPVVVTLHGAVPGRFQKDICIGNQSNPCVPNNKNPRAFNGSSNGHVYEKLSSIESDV
Chain of NR1/NR2C (Q00961 20-1237, other chains not shown): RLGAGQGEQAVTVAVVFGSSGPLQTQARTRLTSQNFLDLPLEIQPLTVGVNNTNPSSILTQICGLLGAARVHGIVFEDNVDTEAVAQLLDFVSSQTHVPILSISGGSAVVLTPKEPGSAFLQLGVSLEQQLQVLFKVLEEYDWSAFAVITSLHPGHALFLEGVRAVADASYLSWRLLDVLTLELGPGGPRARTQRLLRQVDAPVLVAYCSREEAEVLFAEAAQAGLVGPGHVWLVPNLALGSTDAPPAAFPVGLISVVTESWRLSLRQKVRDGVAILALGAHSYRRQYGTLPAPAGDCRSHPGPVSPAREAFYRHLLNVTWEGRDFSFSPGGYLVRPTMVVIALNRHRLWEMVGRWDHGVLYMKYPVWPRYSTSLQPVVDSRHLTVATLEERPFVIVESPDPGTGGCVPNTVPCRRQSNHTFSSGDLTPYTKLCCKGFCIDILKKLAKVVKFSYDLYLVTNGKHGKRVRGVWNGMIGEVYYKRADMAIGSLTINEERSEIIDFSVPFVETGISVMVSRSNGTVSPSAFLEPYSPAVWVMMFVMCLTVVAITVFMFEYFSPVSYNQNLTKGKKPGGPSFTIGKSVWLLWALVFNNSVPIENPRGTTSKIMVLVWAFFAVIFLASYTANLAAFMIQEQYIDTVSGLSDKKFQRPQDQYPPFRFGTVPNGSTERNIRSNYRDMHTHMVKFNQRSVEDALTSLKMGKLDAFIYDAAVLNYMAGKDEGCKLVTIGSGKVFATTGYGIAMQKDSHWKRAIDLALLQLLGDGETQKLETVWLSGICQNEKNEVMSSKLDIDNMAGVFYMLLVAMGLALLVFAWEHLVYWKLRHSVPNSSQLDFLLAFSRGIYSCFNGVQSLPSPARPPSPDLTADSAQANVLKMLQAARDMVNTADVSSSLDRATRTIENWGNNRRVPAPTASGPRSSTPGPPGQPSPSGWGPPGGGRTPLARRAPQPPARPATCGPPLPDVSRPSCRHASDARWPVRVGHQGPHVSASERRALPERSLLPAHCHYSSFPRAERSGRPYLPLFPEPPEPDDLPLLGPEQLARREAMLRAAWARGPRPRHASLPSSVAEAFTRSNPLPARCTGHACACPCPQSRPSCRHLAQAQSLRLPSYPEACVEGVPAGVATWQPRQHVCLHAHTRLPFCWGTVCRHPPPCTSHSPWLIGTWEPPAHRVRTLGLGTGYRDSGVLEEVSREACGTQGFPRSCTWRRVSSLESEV
Chain of NR1/NR2D (Q62645 28-1323, other chains not shown): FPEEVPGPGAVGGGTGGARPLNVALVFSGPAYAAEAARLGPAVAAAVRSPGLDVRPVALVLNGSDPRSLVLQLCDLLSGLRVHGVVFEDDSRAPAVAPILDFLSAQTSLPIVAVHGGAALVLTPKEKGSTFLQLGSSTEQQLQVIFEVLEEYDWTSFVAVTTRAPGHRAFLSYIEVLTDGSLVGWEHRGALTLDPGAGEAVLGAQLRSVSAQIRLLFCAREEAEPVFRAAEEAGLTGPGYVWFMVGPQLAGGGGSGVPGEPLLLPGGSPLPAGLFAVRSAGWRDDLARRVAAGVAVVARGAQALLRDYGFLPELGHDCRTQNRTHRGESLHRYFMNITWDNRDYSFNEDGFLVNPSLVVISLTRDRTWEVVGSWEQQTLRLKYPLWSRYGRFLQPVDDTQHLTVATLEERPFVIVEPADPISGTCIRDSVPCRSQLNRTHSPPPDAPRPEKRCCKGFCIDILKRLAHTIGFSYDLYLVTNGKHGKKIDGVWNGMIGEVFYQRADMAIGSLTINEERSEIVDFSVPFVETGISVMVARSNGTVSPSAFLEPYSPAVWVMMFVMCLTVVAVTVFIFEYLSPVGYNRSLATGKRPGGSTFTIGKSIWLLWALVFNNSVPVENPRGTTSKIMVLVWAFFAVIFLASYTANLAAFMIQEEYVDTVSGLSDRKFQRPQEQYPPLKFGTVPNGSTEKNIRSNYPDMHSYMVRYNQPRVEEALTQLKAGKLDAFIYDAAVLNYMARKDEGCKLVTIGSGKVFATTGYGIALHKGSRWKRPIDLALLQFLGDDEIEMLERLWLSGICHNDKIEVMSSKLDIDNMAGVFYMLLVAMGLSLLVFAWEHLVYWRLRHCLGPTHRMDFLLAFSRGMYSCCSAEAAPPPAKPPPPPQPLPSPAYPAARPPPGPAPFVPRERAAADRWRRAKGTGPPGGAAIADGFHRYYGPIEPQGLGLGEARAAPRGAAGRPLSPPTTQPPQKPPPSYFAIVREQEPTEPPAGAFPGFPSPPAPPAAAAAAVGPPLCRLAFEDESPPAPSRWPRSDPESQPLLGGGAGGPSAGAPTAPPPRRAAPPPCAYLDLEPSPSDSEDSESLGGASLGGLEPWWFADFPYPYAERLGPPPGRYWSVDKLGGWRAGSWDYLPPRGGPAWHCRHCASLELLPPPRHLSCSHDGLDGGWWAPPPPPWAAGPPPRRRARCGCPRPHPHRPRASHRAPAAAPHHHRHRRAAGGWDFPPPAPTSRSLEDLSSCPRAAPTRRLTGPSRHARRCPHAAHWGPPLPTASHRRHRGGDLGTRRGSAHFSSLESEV

| SMILES | remaining activity at 100 µM (NR1/NR2B; [1]) [%] | remaining activity at 100 µM (NR1/NR2D) [%] | remaining activity at 100 µM (NR1/NR2A; [2]) [%] | IC50 (NR1/NR2C; [4]) [µM] | IC50 (NR1/NR2D; [5]) [µM] | further results |
| --- | --- | --- | --- | --- | --- | --- |
| CCCCN(CCCC)C(=O)Oc1ccc(C(=O)Nc2cccc3ccccc23)cc1 [1063-8] | 88 | 87 | 135 | – | – | – |
| CCN(CC)C(=O)Oc1ccc(C(=O)Nc2ccc3c(c2)CCCC3)cc1 [1063-19] | – | – | – | – | – | remaining activity at 100 µM (NR1/NR2B; [6]): 74%; IC50 (NR1/NR2C): 58 µM; IC50 (NR1/NR2D): 26 µM; remaining activity at 100 µM (NR1/NR2A; [7]): 89% |
| CCN(CC)C(=O)Oc1ccccc1C(=O)Nc1cccc2ccccc12 [1063-25] | 88 | 91 | 88 | – | – | remaining activity at 100 µM (NR1/NR2C): 83% |
| CC(C)N(C(=O)Oc1ccc(C(=O)Nc2ccc3[nH]ccc3c2)cc1)C(C)C [1063-16] | – | – | – | – | – | remaining activity at 100 µM (NR1/NR2B; [6]): 81%; IC50 (NR1/NR2C): 30 µM; IC50 (NR1/NR2D): 44 µM; remaining activity at 100 µM (NR1/NR2A; [7]): 100% |
| C=CCN(CC=C)C(=S)Oc1ccc(C(=O)Nc2cccc3ccccc23)cc1 [compound 1380] | – | – | – | – | 279 | – |
| CCN(CC)C(=O)Oc1ccc(C(=O)Nc2cccc3[nH]ccc23)cc1 [1063-26] | – | – | – | – | – | IC50 (NR1/NR2B): 560 µM; IC50 (NR1/NR2C): 8 µM; IC50 (NR1/NR2D): 6 µM; remaining activity at 100 µM (NR1/NR2A; [7]): 88% |
| CCN(CC)C(=O)Oc1ccc(C(=O)Nc2cccc3c2CCCC3)cc1 [1063-18] | – | – | – | – | – | IC50 (NR1/NR2B): 214 µM; IC50 (NR1/NR2C): 23 µM; IC50 (NR1/NR2D): 20 µM; remaining activity at 100 µM (NR1/NR2A; [7]): 95% |
| CCN(CC)C(=S)Oc1ccc(C(=O)Nc2ccc(F)cc2)cc1 [compound 1379] | 88 | – | 99 | 247 | 55 | – |
| CCN(C)C(=O)Oc1ccc(C(=O)Nc2cccc3cc[nH]c23)cc1 [1063-30] | – | – | – | – | – | remaining activity at 100 µM (NR1/NR2B; [6]): 71%; IC50 (NR1/NR2C): 72 µM; IC50 (NR1/NR2D): 56 µM; remaining activity at 100 µM (NR1/NR2A; [7]): 89% |

Second part, led by results:

| remaining activity at 100 µM (NR1/NR2B; [1]) [%] | remaining activity at 100 µM (NR1/NR2D) [%] | remaining activity at 100 µM (NR1/NR2A; [2]) [%] | IC50 (NR1/NR2C; [4]) [µM] | IC50 (NR1/NR2D; [5]) [µM] | SMILES | further results |
| --- | --- | --- | --- | --- | --- | --- |
| 98 | 84 | 135 | – | – | O=C(Nc1cccc2ccccc12)c1ccc(OC(=O)N2CCCCC2)cc1 [1063-7] | – |
| – | – | – | 7 | 4 | O=C(O)CCC(=O)N1N=C(c2c(-c3ccccc3)c3cc(Cl)ccc3[nH]c2=O)CC1c1cccc(Br)c1 (centres unmarked) [compound 1176] | IC50 (NR1/NR2B; [3]): 30 µM; IC50 (NR1/NR2A): 24 µM |
| 95 | 89 | – | – | – | O=C(O)c1ccc(C(=O)Nc2cccc3cc[nH]c23)cc1 [1063-28] | remaining activity at 100 µM (NR1/NR2C): 98%; IC50 (NR1/NR2A): 245 µM |
| – | – | – | 22 | 13 | O=C(O)CCC(=O)N1N=C(c2c(-c3ccccc3)c3cc(Br)ccc3[nH]c2=O)CC1c1ccccc1Cl (centres unmarked) [compound 1209] | IC50 (NR1/NR2B; [3]): 35 µM; IC50 (NR1/NR2A): 79 µM |
| – | – | – | 526 | 366 | O=C(Nc1cccc2ccccc12)c1ccc2oc(=O)[nH]c2c1 [1063-31] | IC50 (NR1/NR2B; [3]): 334 µM; IC50 (NR1/NR2A): 550 µM |
| 80 | – | 92 | 25 | 100 | CCN(CC)C(=S)Oc1ccc(C(=O)Nc2ccc(Cl)c3ccccc23)cc1 [1063-12] | – |
| 85 | 91 | 91 | – | – | O=C(Nc1cccc2ccccc12)c1ccc(Oc2nc3ccccc3s2)cc1 [1063-23] | remaining activity at 100 µM (NR1/NR2C): 89% |
| 98 | 86 | 111 | – | – | CCC(CC)C(=O)Oc1ccc(C(=O)Nc2cccc3ccccc23)cc1 [1063-9] | remaining activity at 100 µM (NR1/NR2C): 94% |
| 92 | 81 | 111 | – | – | O=C(Nc1cccc2ccccc12)c1ccc(OC(=O)C2CC2)cc1 [1063-10] | remaining activity at 100 µM (NR1/NR2C): 86% |
| – | – | – | 243 | 91 | CCN(CC)C(=S)Oc1ccc(C(=O)Nc2ccc3ccccc3c2)cc1 [1063-0] | remaining activity at 30 µM (NR1/NR2B; at 30 μM, read-out: 2B percent effect at the maximum tested concentration): 99%; remaining activity at 30 µM (NR1/NR2A; at 30 μM, read-out: 2A percent effect at the maximum tested concentration): 101% |
